Laboratory results from patent US20200016076A1, “COMPOSITION FOR THE TREATMENT OF DUCHENNE MUSCULAR DYSTROPHY” (Summit (Oxford) Limited, priority 2016, published 2020).
Values after ≈ are worked out from the molar mass of the structure shown.

Tests used:
[1] = Solubility of ezutromid Form I polymorph in pharmaceutically-acceptable solvents at 20° C. (HPLC of saturated solutions); format: physicochemical; conditions: 1-propanol; 4 hours equilibration
Protocol: In each case, about 25 mg of drug substance was allowed to equilibrate with 250 μL of solvent over 4 hours. The resulting saturated solutions were filtered and analysed by HPLC.

[2] = Gravimetric vapour sorption analysis; format: physicochemical
Source text: Form I was subjected to gravimetric vapour sorption analysis, ramping profile from 0 to 90% RH at 10% RH increments.

mouse models of DMD = conditions: with corticosteroids including prednisone, prednisolone and deflazacort; WO2009/019504; cited from earlier work

Solubility at 20° C. [1]: 0.79 mg/mL (≈ 2340 µM)
Hygroscopicity ([2]; based on gravimetric vapour sorption): not hygroscopic
Moisture absorbed ([2]; up to 90% RH, 0 to 90% RH at 10% RH increments): no more than 0.25 % by weight
Structure (SMILES): CCS(=O)(=O)c1ccc2oc(-c3ccc4ccccc4c3)nc2c1 [ezutromid, 5-(ethylsulfonyl)-2-(naphthalen-2-yl)benzo[d]oxazole]
Reduction of exercise-induced fatigue with corticosteroids (mouse models of DMD): acts in synergy with corticosteroids
